Source: paper PMC10627047, “Flavone-based dual PARP-Tubulin inhibitor manifesting efficacy against endometrial cancer” (Journal of Enzyme Inhibition and Medicinal Chemistry, 2023)
Like-named read-outs stand apart in the source and are kept apart here.

Key:
[1] = tested on: Ishikawa cell lines; assay: In-vitro cytotoxicity (MTT cell viability assay); format: cell-based; conditions: Homo sapiens, read-out: IC50 values (Ishikawa cell lines, µM ± SD), in-vitro growth inhibition
Experimental: The cell growth inhibitory effects of the synthesised compounds were evaluated against Ishikawa cell lines. […] Forth, the synthesised compounds bearing a substituted phenyl ring at position 2 of the biaryl arm bearing benzopyrans were profiled for the cytotoxic effects. Noteworthy to mention that diverse substitutions with varied electronic effects viz fluorine (−I, +R), methoxy (−I, +R), and nitro (−I and − R) were made on the phenyl ring (position 2 of benzopyran). Also, the trimethoxy phenyl ring well established as an imperative structural feature of tubulin inhibitors was tethered to the benzopyran scaffold (20, 21).
Ishikawa cells (a human endometrial carcinoma of the epithelial cell) were kindly gifted by Dr. Geetanjali Sachdeva and Dr. Uddhav Chaudhari of National Institute for Research In Reproductive and Child Health (NIRRCH), Mumbai. […] The cells were maintained in RPMI medium supplemented with 10% Foetal bovine serum (FBS) and 100 IU/mL penicillin.
Mitochondrial activity was evaluated by MTT assay.[59] This assay is based on enzymatic reduction of the yellow-colored MTT dye to purple-colored formazan crystals by a variety of mitochondrial and cytosolic enzymes that are operational in viable cells. Briefly, […] (3000 cells/well) were seeded in 100 µL of medium into a 96-well plate and left to settle in a CO2 incubator. […] Then 150 μL of DMSO was added to each well to dissolve the formazan crystals. The optical density (OD) of each well was recorded using a microplate reader at a wavelength of 570 nm. The percentages of cell viability and growth inhibition were calculated according to the following equations. Cell viability (%) = [(OD of treated cells-OD of blank)/(OD of control-OD of blank) ×100].

[2] = Ishikawa cell lines, MTT, 48 h incubation, mean ± SD, at least three experiments

melting point [°C]	SMILES	IC50 [1, 2] [µM]	IC50 ([1]; Ishikawa, 48 h) [µM]
173 to 176	COc1ccc(-c2cc(=O)c3ccc(-c4ccoc4)cc3o2)cc1 [Compound 8, 7-(Furan-3-yl)-2–(4-methoxyphenyl)-4H-chromen-4-one]	3.2 ± 1.04	–
180 to 184	COc1ccc(-c2cc(=O)c3ccc(-c4cccs4)cc3o2)cc1 [Compound 9, 2–(4-methoxyphenyl)-7-(thiophen-2-yl)-4H-chromen-4-one]	3 ± 0.785	–
183 to 186	COc1ccc(-c2cc(=O)c3ccc(-c4ccc5c(c4)OCCO5)cc3o2)cc1 [Compound 10, 7–(2,3-dihydrobenzo[b][1,4]dioxin-6-yl)-2–(4-methoxyphenyl)-4H-chromen-4-one]	> 10	–
221 to 224	COc1ccc(-c2cc(=O)c3ccc(-c4ccc5ncccc5c4)cc3o2)cc1 [Compound 11, 2–(4-methoxyphenyl)-7-(quinolin-6-yl)-4H-chromen-4-one]	> 10	–
129 to 132	COc1ccc(-c2cc(=O)c3ccc(-c4ccc5[nH]ccc5c4)cc3o2)cc1 [Compound 12, 7-(1H-indol-5-yl)-2–(4-methoxyphenyl)-4H-chromen-4-one]	> 10	–
193 to 196	O=c1cc(-c2ccc(F)cc2)oc2cc(-c3ccccc3)ccc12 [Compound 13, 2–(4-fluorophenyl)-7-phenyl-4H-chromen-4-one]	2.03 ± 1.1	–
202 to 205	O=c1cc(-c2ccc(F)cc2)oc2cc(-c3cccs3)ccc12 [Compound 15, 2–(4-fluorophenyl)-7-(thiophen-2-yl)-4H-chromen-4-one]	1.5 ± 1.08	–
193 to 196	O=c1cc(-c2ccc(F)cc2)oc2cc(-c3ccc4c(c3)OCCO4)ccc12 [Compound 16, 7–(2,3-dihydrobenzo[b][1,4]dioxin-6-yl)-2–(4-fluorophenyl)-4H-chromen-4-one]	> 10	–
236 to 240	O=c1cc(-c2ccc(F)cc2)oc2cc(-c3ccc4ncccc4c3)ccc12 [Compound 17, 2–(4-fluorophenyl)-7-(quinolin-6-yl)-4H-chromen-4-one]	> 10	–
229 to 232	O=c1cc(-c2ccc(F)cc2)oc2cc(-c3ccc4[nH]ccc4c3)ccc12 [Compound 18, 2–(4-fluorophenyl)-7-(1H-indol-5-yl)-4H-chromen-4-one]	> 10	–
255 to 258	O=c1cc(-c2ccc([N+](=O)[O-])cc2)oc2cc(-c3ccc4[nH]ccc4c3)ccc12 [Compound 19, 7-(1H-indol-5-yl)-2–(4-nitrophenyl)-4H-chromen-4-one]	> 10	–
214 to 217	COc1cc(-c2cc(=O)c3ccc(-c4ccc5ncccc5c4)cc3o2)cc(OC)c1OC [Compound 20, 7-(Quinolin-6-yl)-2–(3,4,5-trimethoxyphenyl)-4H-chromen-4-one]	> 10	–
246 to 250	COc1cc(-c2cc(=O)c3ccc(-c4ccc5[nH]ccc5c4)cc3o2)cc(OC)c1OC [Compound 21, 7-(1H-indol-5-yl)-2–(3,4,5-trimethoxyphenyl)-4H-chromen-4-one]	> 10	–

More lines, now with the values behind:

SMILES	melting point [°C]	IC50 [1, 2] [µM]	IC50 ([1]; Ishikawa, 48 h) [µM]
COc1ccc(/C=C\c2cc(OC)c(OC)c(OC)c2)cc1O [Combretastatin, Combretastatin A-4, reference compound]	–	4.21 ± 0.78	–
O=c1cc(-c2ccccc2)oc2cc(-c3ccccc3)ccc12 [Compound 1, 2,7-diphenyl-4H-chromen-4-one]	153 to 157	3 ± 1.09	–
O=c1cc(-c2ccccc2)oc2cc(-c3ccoc3)ccc12 [Compound 2, 7-(Furan-3-yl)-2-phenyl-4H-chromen-4-one]	163 to 167	1.5 ± 0.67	–
O=c1cc(-c2ccccc2)oc2cc(-c3cccs3)ccc12 [Compound 3, 2-phenyl-7-(thiophen-2-yl)-4H-chromen-4-one]	186 to 189	2.1 ± 0.89	–
O=c1cc(-c2ccccc2)oc2cc(-c3ccc4c(c3)OCCO4)ccc12 [Compound 4, 7–(2,3-dihydrobenzo[b][1,4]dioxin-6-yl)-2-phenyl-4H-chromen-4-one]	181 to 184	> 10	–
O=c1cc(-c2ccccc2)oc2cc(-c3ccc4ncccc4c3)ccc12 [Compound 5, 2-phenyl-7-(quinolin-6-yl)-4H-chromen-4-one]	136 to 140	> 10	–
O=c1cc(-c2ccccc2)oc2cc(-c3ccc4[nH]ccc4c3)ccc12 [Compound 6, 7-(1H-indol-5-yl)-2-phenyl-4H-chromen-4-one]	246 to 249	> 10	–
COc1ccc(-c2cc(=O)c3ccc(-c4ccccc4)cc3o2)cc1 [Compound 7, 2–(4-methoxyphenyl)-7-phenyl-4H-chromen-4-one]	172 to 175	6.3 ± 1.08	–
O=C(c1cc(Cc2n[nH]c(=O)c3ccccc23)ccc1F)N1CCN(C(=O)C2CC2)CC1 [Olaparib, reference compound]	–	–	3.91 ± 1.06
O=c1cc(-c2ccccc2)oc2ccccc12 [X, reference compound]	–	> 10	–
